# In PubChem BioAssay (NCI):
#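 Dose response: 5 concentrations. Exposure: 48 h. Format: 96-well plates. Endpoint: linear interpolation; highest concentration if not reached. TGI: total growth inhibition.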
# Key:
# Assay in all cases: NCI anticancer screen, dose series, 48 h
# [1] = test system: LOX IMVI melanoma
# [2] = test system: HCT-116 colon
# [3] = test system: SR leukemia
# [4] = test system: EKVX NSCLC
# [5] = test system: HOP-92 NSCLC
# [6] = test system: HT29 colon
# [7] = test system: HCT-15 colon
# [8] = test system: SF-539 CNS
# [9] = test system: NCI-H460 lung
# [10] = test system: MDA-MB-435
# [11] = test system: MDA-N
# [12] = test system: MCF7 breast
# [13] = test system: UACC-257 melanoma
# [14] = test system: HOP-62 NSCLC
# [15] = test system: SK-MEL-2 melanoma
# [16] = test system: UO-31 renal
# [17] = test system: NCI-H23 lung
# [18] = test system: T-47D breast
# [19] = test system: HL-60(TB) leukemia
# [20] = test system: RPMI-8226 leukemia
# [21] = test system: HCC-2998 colon
# [22] = test system: SNB-75 CNS
# [23] = test system: SNB-19 CNS
# [24] = test system: 786-0 renal
# [25] = test system: PC-3 prostate
# [26] = test system: SK-OV-3 ovarian
# [27] = test system: A498 renal
# [28] = test system: IGROV1 ovarian
# [29] = test system: COLO 205 colon
# [30] = test system: OVCAR-4 ovarian
# [31] = test system: OVCAR-5 ovarian
# [32] = test system: M14 melanoma
# [33] = test system: TK-10 renal
# [34] = test system: OVCAR-8 ovarian
# [35] = test system: A549 NSCLC
# [36] = test system: BT-549 breast
# [37] = test system: OVCAR-3 ovarian
# [38] = test system: SF-295 CNS
# [39] = test system: SF-268 CNS
# [40] = test system: NCI-H226 lung
# [41] = test system: CAKI-1 renal
# [42] = test system: NCI/ADR-RES ovarian
# [43] = test system: K-562 leukemia
# [44] = test system: SW-620 colon
# [45] = test system: MALME-3M melanoma
# [46] = test system: KM12 colon
# [47] = test system: SK-MEL-28 melanoma
# [48] = test system: HS 578T breast
# [49] = test system: CCRF-CEM leukemia
# [50] = test system: MOLT-4 leukemia
# [51] = test system: DU-145 prostate
# [52] = test system: SN12C renal
# [53] = test system: ACHN renal
# [54] = test system: UACC-62 melanoma
# [55] = test system: U251 CNS
# [56] = test system: RXF 393 renal
# [57] = test system: SK-MEL-5 melanoma
# [58] = test system: NCI-H522 lung
# [59] = test system: MDA-MB-231 breast
smiles,measurement,setting,value
NC1C/C(=N\O)c2c(Cl)sc(Cl)c21 (stereo not drawn),TGI,[1],15.9 µM
same,TGI,[2],20.8 µM
same,TGI,[3],> 100 µM
same,TGI,[4],34 µM
same,TGI,[5],42.9 µM
same,TGI,[6],54.6 µM
same,TGI,[7],33 µM
same,TGI,[8],22.1 µM
same,TGI,[9],43.3 µM
same,TGI,[10],29.5 µM
same,TGI,[11],33.4 µM
same,TGI,[12],27.5 µM
same,TGI,[13],31.2 µM
same,TGI,[14],37 µM
same,TGI,[15],36.1 µM
same,TGI,[16],34.3 µM
same,TGI,[17],33.7 µM
same,TGI,[18],39.7 µM
same,TGI,[19],> 100 µM
same,TGI,[20],65.3 µM
same,TGI,[21],> 100 µM
same,TGI,[22],76.9 µM
same,TGI,[23],94.3 µM
same,TGI,[24],33.4 µM
same,TGI,[25],48.8 µM
same,TGI,[26],> 100 µM
same,TGI,[27],59.8 µM
same,TGI,[28],32 µM
same,TGI,[29],61.4 µM
same,TGI,[30],38.4 µM
same,TGI,[31],40 µM
same,TGI,[32],34.1 µM
same,TGI,[33],31.4 µM
same,TGI,[34],28.8 µM
same,TGI,[35],> 100 µM
same,TGI,[36],32.9 µM
same,TGI,[37],31.8 µM
same,TGI,[38],91.1 µM
same,TGI,[39],> 100 µM
same,TGI,[40],41.4 µM
same,TGI,[41],32.2 µM
same,TGI,[42],67.3 µM
same,TGI,[43],> 100 µM
same,TGI,[44],33.4 µM
same,TGI,[45],34.5 µM
same,TGI,[46],25.5 µM
same,TGI,[47],33.6 µM
same,TGI,[48],> 100 µM
same,TGI,[49],> 100 µM
same,TGI,[50],> 100 µM
same,TGI,[51],29 µM
same,TGI,[52],35 µM
same,TGI,[53],36.4 µM
CCCCCCCC(CC(=O)NC(CO)C(=O)NC(CO)CC(C)C)OC(=O)CC(CCCCCCC)OC(=O)CC(CCCCCCC)OC1OC(C)C(O)C(OC2OC(C)C(O)C(OC(C)=O)C2O)C1O (stereo not drawn),TGI,[2],25.8 µM
same,TGI,[54],25.8 µM
same,TGI,[3],13.2 µM
same,TGI,[4],28.7 µM
same,TGI,[5],22.8 µM
same,TGI,[6],20.4 µM
same,TGI,[55],17.2 µM
same,TGI,[8],24.5 µM
same,TGI,[9],26.1 µM
same,TGI,[10],23 µM
same,TGI,[11],19.5 µM
same,TGI,[12],24.7 µM
same,TGI,[13],18.5 µM
same,TGI,[14],24.8 µM
same,TGI,[16],28.3 µM
same,TGI,[17],27.9 µM
same,TGI,[18],26.8 µM
same,TGI,[19],23.4 µM
same,TGI,[21],23.2 µM
same,TGI,[22],19.1 µM
same,TGI,[23],20.4 µM
same,TGI,[56],20.9 µM
same,TGI,[24],26.4 µM
same,TGI,[25],20.6 µM
same,TGI,[26],30.8 µM
same,TGI,[27],26.1 µM
same,TGI,[57],25.1 µM
same,TGI,[28],24.8 µM
same,TGI,[29],18.9 µM
same,TGI,[30],27.8 µM
same,TGI,[31],24 µM
same,TGI,[58],28.4 µM
same,TGI,[32],22.6 µM
same,TGI,[33],29.2 µM
same,TGI,[34],28.3 µM
same,TGI,[35],25 µM
same,TGI,[36],19.9 µM
same,TGI,[37],23 µM
same,TGI,[38],30.2 µM
same,TGI,[59],23.4 µM
same,TGI,[39],25.9 µM
same,TGI,[40],35.1 µM
same,TGI,[41],30.2 µM
same,TGI,[43],31.4 µM
same,TGI,[44],28.8 µM
same,TGI,[45],33.4 µM
same,TGI,[46],22.1 µM
same,TGI,[47],24.6 µM
same,TGI,[48],20.3 µM
same,TGI,[49],21.4 µM
same,TGI,[50],16.8 µM
same,TGI,[51],23.4 µM
same,TGI,[52],19.9 µM
same,TGI,[53],31.4 µM
COc1ccccc1C[C@@H]1OC2(C=CC(=O)CC2SC(=O)c2ccccc2)O[C@H]1Cc1ccccc1OC (stereo partly drawn),TGI,[1],1.9 µM
same,TGI,[2],0.651 µM
same,TGI,[54],7 µM
same,TGI,[3],2.81 µM
same,TGI,[5],3.31 µM
same,TGI,[6],3.14 µM
same,TGI,[55],2.81 µM
same,TGI,[7],4.75 µM
same,TGI,[8],3.08 µM
same,TGI,[9],7.87 µM
same,TGI,[10],4.61 µM
same,TGI,[11],6.16 µM
same,TGI,[12],2.36 µM
same,TGI,[13],3.02 µM
same,TGI,[14],3.03 µM
same,TGI,[15],3.31 µM
same,TGI,[16],2.54 µM
same,TGI,[17],5.43 µM
same,TGI,[18],5.64 µM
same,TGI,[19],5.64 µM
same,TGI,[20],0.943 µM
same,TGI,[22],3.28 µM
same,TGI,[23],4.94 µM
same,TGI,[56],0.501 µM
same,TGI,[24],0.973 µM
same,TGI,[25],4.71 µM
same,TGI,[26],5.04 µM
same,TGI,[27],5.67 µM
same,TGI,[57],3.1 µM
same,TGI,[28],2.74 µM
same,TGI,[29],3.16 µM
same,TGI,[30],3.69 µM
same,TGI,[31],2.63 µM
same,TGI,[32],3.26 µM
same,TGI,[33],5.07 µM
same,TGI,[35],8.67 µM
same,TGI,[36],2.74 µM
same,TGI,[37],4.93 µM
same,TGI,[38],4.14 µM
same,TGI,[59],7.23 µM
same,TGI,[39],2.44 µM
same,TGI,[41],5.24 µM
same,TGI,[42],4.55 µM
same,TGI,[43],27.3 µM
same,TGI,[44],1.35 µM
same,TGI,[45],4.26 µM
same,TGI,[46],8.4 µM
same,TGI,[47],3.22 µM
same,TGI,[48],4.73 µM
same,TGI,[49],1.03 µM
same,TGI,[50],19.5 µM
same,TGI,[51],18 µM
same,TGI,[52],6.49 µM
same,TGI,[53],3.5 µM
COC(=O)c1ccccc1/C=C1\Cc2c(C)c3c(c(C)c2C1=O)CCC3,TGI,[1],> 100 µM
same,TGI,[2],> 100 µM
same,TGI,[54],> 100 µM
same,TGI,[3],> 100 µM
same,TGI,[4],> 100 µM
same,TGI,[5],> 100 µM
same,TGI,[6],> 100 µM
same,TGI,[55],> 100 µM
same,TGI,[7],> 100 µM
same,TGI,[8],> 100 µM
same,TGI,[9],> 100 µM
same,TGI,[10],> 100 µM
same,TGI,[11],> 100 µM
same,TGI,[12],> 100 µM
same,TGI,[13],> 100 µM
same,TGI,[14],> 100 µM
same,TGI,[15],> 100 µM
same,TGI,[16],> 100 µM
same,TGI,[17],> 100 µM
same,TGI,[18],> 100 µM
same,TGI,[19],> 100 µM
same,TGI,[20],> 100 µM
same,TGI,[21],> 100 µM
same,TGI,[22],> 100 µM
same,TGI,[23],> 100 µM
same,TGI,[56],> 100 µM
same,TGI,[24],> 100 µM
same,TGI,[25],> 100 µM
same,TGI,[27],> 100 µM
same,TGI,[57],> 100 µM
same,TGI,[28],> 100 µM
same,TGI,[29],> 100 µM
same,TGI,[30],> 100 µM
same,TGI,[31],> 100 µM
same,TGI,[58],> 100 µM
same,TGI,[32],> 100 µM
same,TGI,[33],> 100 µM
same,TGI,[34],> 100 µM
same,TGI,[35],> 100 µM
same,TGI,[36],> 100 µM
same,TGI,[37],> 100 µM
same,TGI,[38],> 100 µM
same,TGI,[39],> 100 µM
same,TGI,[40],> 100 µM
same,TGI,[41],> 100 µM
same,TGI,[42],> 100 µM
same,TGI,[43],> 100 µM
same,TGI,[44],> 100 µM
same,TGI,[45],> 100 µM
same,TGI,[46],> 100 µM
same,TGI,[47],> 100 µM
same,TGI,[48],95.6 µM
same,TGI,[49],> 100 µM
same,TGI,[50],> 100 µM
same,TGI,[51],> 100 µM
same,TGI,[52],> 100 µM
same,TGI,[53],> 100 µM
